Reference: US10556914B2, “Substituted isoxazolopyridazinones and isothiazolopyridazinones and methods of use” (AbbVie Inc., priority 2015, dated 2020)

Target: GABA-B receptor (Rattus norvegicus (Rat), UniProt O88871+Q9Z0U4)
Assay: [35S]GTPgS Binding Assay (rat brain cortex membranes, native receptor)
Format: biochemical
Conditions: rat cortical membranes; in the presence of 1 μM GABA (EC25); basal binding 0%, maximal binding (1 mM GABA) 100%
Procedure: Preparation of Rat Brain Membranes for Native Receptor Assays
Membranes from rat brain cortex were prepared as described in detail by Olpe et al. and stored at concentrations of 1.66 mg/mL protein at −80° C. until required. (Olpe, H.-R, et al. Eur J Pharmacol 1990; 187: 27-38).
[^35S]GTPgS Binding Assay
The samples were incubated at room temperature for 60 minutes on a shaker. The incubation was stopped by rapid vacuum filtration over glass-fiber filter plates (UniFilter-96 well, GF/B membrane plates, PerkinElmer) using a 96-well plate harvester (TOMTEK© Harvester). The UniFilter plate was washed five times with ice-cold wash buffer (50 mM Tris-HCl buffer, pH 7.7, 10 mM MgCl2, and 100 mM NaCl. After filtration the plate was dried for 90 minutes at 55° C. The plates were closed on the bottom with black sealing membranes, and liquid scintillation cocktail (35 μL, Betaplate Scint, PerkinElmer) was added to each well. After sealing the top of the plate, an additional incubation step of 90 minutes at room temperature followed before measuring the plate. The amount of membrane-bound [^35S]GTPgS was measured using a 96-well plate reader (Microbeta®, PerkinElmer). Nonspecific binding was measured in the presence of unlabeled 10 μM of GTPgS (Millipore) and without GABA. Basal binding was measured in the absence of 1 μM GABA, and maximal binding was measured in the presence of GABA using 1 mM GABA concentrations.
Data analysis. The concentration-response curves of compounds of the present disclosure in the presence of EC25 of GABA-B receptor agonist were generated using the GraphPad Prism® program (GraphPad Software, San Diego, Calif.). Data was normalized using basal binding as 0% and maximal binding as 100%. The curves were fitted by nonlinear regression allowing determination of EC50 values from sigmoidal dose-response curves. Each curve was performed using triplicate sample per date point and 10 concentrations.

Chain of GABA-B receptor (Q9Z0U4 17-960): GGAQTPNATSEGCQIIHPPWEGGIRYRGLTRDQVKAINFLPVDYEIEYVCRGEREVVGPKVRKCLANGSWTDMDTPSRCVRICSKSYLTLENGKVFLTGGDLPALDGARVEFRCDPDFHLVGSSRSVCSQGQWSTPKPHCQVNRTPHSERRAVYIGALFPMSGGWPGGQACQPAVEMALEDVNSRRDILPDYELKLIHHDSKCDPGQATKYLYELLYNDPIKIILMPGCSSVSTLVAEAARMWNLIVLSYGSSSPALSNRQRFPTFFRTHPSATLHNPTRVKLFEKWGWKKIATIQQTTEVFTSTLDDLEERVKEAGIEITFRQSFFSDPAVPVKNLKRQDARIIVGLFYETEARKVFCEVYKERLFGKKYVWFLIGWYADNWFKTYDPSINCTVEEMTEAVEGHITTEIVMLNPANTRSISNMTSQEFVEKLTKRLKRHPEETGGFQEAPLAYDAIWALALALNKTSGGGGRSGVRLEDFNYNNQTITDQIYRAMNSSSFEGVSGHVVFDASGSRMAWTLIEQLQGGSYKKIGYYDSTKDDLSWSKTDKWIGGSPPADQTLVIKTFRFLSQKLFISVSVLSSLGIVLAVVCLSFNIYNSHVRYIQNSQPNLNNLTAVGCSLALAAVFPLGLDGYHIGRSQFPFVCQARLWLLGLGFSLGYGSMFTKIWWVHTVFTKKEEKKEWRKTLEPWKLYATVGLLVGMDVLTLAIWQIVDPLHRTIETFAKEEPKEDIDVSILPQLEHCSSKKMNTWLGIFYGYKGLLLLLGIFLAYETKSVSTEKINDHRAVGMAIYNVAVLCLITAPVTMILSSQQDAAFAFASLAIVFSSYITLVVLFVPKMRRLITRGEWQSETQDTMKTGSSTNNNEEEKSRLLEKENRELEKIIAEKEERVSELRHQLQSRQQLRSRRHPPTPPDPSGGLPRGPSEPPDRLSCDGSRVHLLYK
Chain of GABA-B receptor (O88871 41-940): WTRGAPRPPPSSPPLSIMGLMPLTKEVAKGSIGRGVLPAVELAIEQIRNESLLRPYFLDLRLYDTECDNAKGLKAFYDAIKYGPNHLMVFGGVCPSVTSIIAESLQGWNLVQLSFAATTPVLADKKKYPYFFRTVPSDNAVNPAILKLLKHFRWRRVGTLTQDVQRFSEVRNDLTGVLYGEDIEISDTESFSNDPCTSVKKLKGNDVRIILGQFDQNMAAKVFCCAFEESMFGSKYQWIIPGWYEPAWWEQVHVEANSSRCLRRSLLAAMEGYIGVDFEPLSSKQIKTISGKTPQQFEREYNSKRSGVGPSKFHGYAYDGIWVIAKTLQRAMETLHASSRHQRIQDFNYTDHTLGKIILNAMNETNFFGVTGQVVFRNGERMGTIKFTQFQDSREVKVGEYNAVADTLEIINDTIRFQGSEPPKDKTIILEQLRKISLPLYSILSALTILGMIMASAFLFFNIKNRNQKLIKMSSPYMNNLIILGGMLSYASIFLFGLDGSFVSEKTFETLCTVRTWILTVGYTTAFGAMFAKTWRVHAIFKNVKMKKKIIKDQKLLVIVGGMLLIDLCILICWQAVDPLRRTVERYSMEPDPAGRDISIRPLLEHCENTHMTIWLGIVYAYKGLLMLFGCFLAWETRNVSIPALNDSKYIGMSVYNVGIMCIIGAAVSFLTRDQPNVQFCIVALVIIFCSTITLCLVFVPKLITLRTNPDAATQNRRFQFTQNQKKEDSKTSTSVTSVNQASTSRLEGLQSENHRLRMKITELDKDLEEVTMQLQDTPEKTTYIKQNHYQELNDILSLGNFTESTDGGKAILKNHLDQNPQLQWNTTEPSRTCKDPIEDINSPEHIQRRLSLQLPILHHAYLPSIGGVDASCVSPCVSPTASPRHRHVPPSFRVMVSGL

Structure (SMILES)	EC50 [µM]
COc1ccccc1-c1nn(Cc2cc(C(F)(F)F)ccc2F)c(=O)c2c(C)noc12 [Example 46, 5-[2-fluoro-5-(trifluoromethyl)benzyl]-7-(2-methoxyphenyl)-3-methyl[1,2]oxazolo[4,5-d]pyridazin-4(5H)-one]	2.29
COc1ccc(OC)c(-c2nn(Cc3ccc(Cl)cc3)c(=O)c3c(C4CC4)noc23)c1 [Example 47, 5-(4-chlorobenzyl)-3-cyclopropyl-7-(2,5-dimethoxyphenyl)[1,2]oxazolo[4,5-d]pyridazin-4(5H)-one]	0.578
COc1ccc(-c2nn(Cc3cc(C(F)(F)F)ccc3F)c(=O)c3c(C)noc23)c(OC)c1 [Example 48, 7-(2,4-dimethoxyphenyl)-5-[2-fluoro-5-(trifluoromethyl)benzyl]-3-methyl[1,2]oxazolo[4,5-d]pyridazin-4(5H)-one]	1.55
CC(=O)Nc1ccc(OC(F)(F)F)c(-c2nn(C(C)c3ccc(Cl)cc3)c(=O)c3c(C)noc23)c1 (centres unmarked) [Example 49, N-[3-{5-[1-(4-chlorophenyl)ethyl]-3-methyl-4-oxo-4,5-dihydro[1,2]oxazolo[4,5-d]pyridazin-7-yl}-4-(trifluoromethoxy)phenyl]acetamide]	0.283
CC(=O)Nc1cccc(-c2nn(Cc3ccc(Cl)cc3)c(=O)c3c(C4CC4)noc23)c1 [Example 51, N-{3-[5-(4-chlorobenzyl)-3-cyclopropyl-4-oxo-4,5-dihydro[1,2]oxazolo[4,5-d]pyridazin-7-yl]phenyl}acetamide]	1.5
CCCc1noc2c(-c3cc(OC)ccc3OC)nn(Cc3ccc(Cl)cc3)c(=O)c12 [Example 52, 5-(4-chlorobenzyl)-7-(2,5-dimethoxyphenyl)-3-propyl[1,2]oxazolo[4,5-d]pyridazin-4(5H)-one]	> 10
Cc1noc2c(-c3cccc(S(N)(=O)=O)c3)nn(C(C)c3ccc(Cl)cc3)c(=O)c12 (centres unmarked) [Example 53, 3-{5-[1-(4-chlorophenyl)ethyl]-3-methyl-4-oxo-4,5-dihydro[1,2]oxazolo[4,5-d]pyridazin-7-yl}benzenesulfonamide]	0.62
COc1ccccc1-c1nn(Cc2ccc(F)c(C(F)(F)F)c2)c(=O)c2c(C)noc12 [Example 54, 5-[4-fluoro-3-(trifluoromethyl)benzyl]-7-(2-methoxyphenyl)-3-methyl[1,2]oxazolo[4,5-d]pyridazin-4(5H)-one]	1.2
COc1ccc(NS(C)(=O)=O)cc1-c1nn(C(C)c2ccc(Cl)cc2)c(=O)c2c(C)noc12 (centres unmarked) [Example 55, N-(3-{5-[1-(4-chlorophenyl)ethyl]-3-methyl-4-oxo-4,5-dihydro[1,2]oxazolo[4,5-d]pyridazin-7-yl}-4-methoxyphenyl)methanesulfonamide]	0.08
Cc1noc2c(-c3cccs3)nn(Cc3ccc(Cl)cc3)c(=O)c12 [Example 56, 5-(4-chlorobenzyl)-3-methyl-7-(thiophen-2-yl)[1,2]oxazolo[4,5-d]pyridazin-4(5H)-one]	0.982
CC(=O)Nc1cccc(-c2nn(Cc3ccc(C(F)(F)F)cc3)c(=O)c3c(C)noc23)c1 [Example 57, N-(3-{3-methyl-4-oxo-5-[4-(trifluoromethyl)benzyl]-4,5-dihydro[1,2]oxazolo[4,5-d]pyridazin-7-yl}phenyl)acetamide]	3.33
COc1ccc(C(N)=O)cc1-c1nn(C(C)c2ccc(Cl)cc2)c(=O)c2c(C)noc12 (centres unmarked) [Example 59]	0.017
Cc1nn(CCc2ccc(Cl)cc2)c(=O)c2c(C)noc12 [Example 60, 5-[2-(4-chlorophenyl)ethyl]-3,7-dimethyl[1,2]oxazolo[4,5-d]pyridazin-4(5H)-one]	> 10
CC(=O)Nc1cc(-c2nn(Cc3ccc(F)c(C(F)(F)F)c3)c(=O)c3c(C)noc23)ccc1F [Example 61, N-(2-fluoro-5-{5-[4-fluoro-3-(trifluoromethyl)benzyl]-3-methyl-4-oxo-4,5-dihydro[1,2]oxazolo[4,5-d]pyridazin-7-yl}phenyl)acetamide]	> 10
COc1ccc(F)cc1-c1nn(C(C)c2ccc(Cl)cc2)c(=O)c2c(C)noc12 (centres unmarked) [Example 63, 5-[1-(4-chlorophenyl)ethyl]-7-(5-fluoro-2-methoxyphenyl)-3-methyl[1,2]oxazolo[4,5-d]pyridazin-4(5H)-one]	0.491
COc1ccc(NC(C)=O)cc1-c1nn(Cc2ccc(C(F)(F)F)cc2)c(=O)c2c(C)noc12 [Example 64, N-(4-methoxy-3-{3-methyl-4-oxo-5-[4-(trifluoromethyl)benzyl]-4,5-dihydro[1,2]oxazolo[4,5-d]pyridazin-7-yl}phenyl)acetamide]	0.644

Structure (SMILES)	EC50 [µM]
Cc1noc2c(-c3cccc(N)c3C(N)=O)nn(C(C)c3ccc(Cl)cc3)c(=O)c12 (centres unmarked) [Example 65, 2-amino-6-{5-[1-(4-chlorophenyl)ethyl]-3-methyl-4-oxo-4,5-dihydro[1,2]oxazxazolo[4,5-d]pyridazin-7-yl}benzamide]	1.85
COc1ccc(Cn2nc(-c3ccc(F)cc3)c3onc(C)c3c2=O)cc1C(F)(F)F [Example 66, 7-(4-fluorophenyl)-5-[4-methoxy-3-(trifluoromethyl)benzyl]-3-methyl[1,2]oxazolo[4,5-d]pyridazin-4(5H)-one]	2.79
COc1ccccc1-c1nn(Cc2ccc(Cl)cc2)c(=O)c2c(C)noc12 [Example 67, 5-(4-chlorobenzyl)-7-(2-methoxyphenyl)-3-methyl[1,2]oxazolo[4,5-d]pyridazin-4(5H)-one]	2.13
COc1ccc(OC)c(-c2nn([C@@H](C)c3ccc(Cl)cc3)c(=O)c3c(C4CC4)noc23)c1 [Example 68, 5-[(1S)-1-(4-chlorophenyl)ethyl]-3-cyclopropyl-7-(2,5-dimethoxyphenyl)[1,2]oxazolo[4,5-d]pyridazin-4(5H)-one]	0.048
CC(=O)Nc1cccc(-c2nn(Cc3ccc(Cl)cc3)c(=O)c3c(C)noc23)c1 [Example 70, N-{3-[5-(4-chlorobenzyl)-3-methyl-4-oxo-4,5-dihydro[1,2]oxazolo[4,5-d]pyridazin-7-yl]phenyl}acetamide]	0.935
COCc1noc2c(-c3cc(OC)ccc3OC)nn(Cc3ccc(Cl)cc3)c(=O)c12 [Example 71, 5-(4-chlorobenzyl)-7-(2,5-dimethoxyphenyl)-3-(methoxymethyl)[1,2]oxazolo[4,5-d]pyridazin-4(5H)-one]	2.21
CC(=O)Nc1cccc(-c2nn([C@@H](C)c3ccc(Cl)cc3)c(=O)c3c(C)noc23)c1 [Example 72, N-(3-{5-[(1S)-1-(4-chlorophenyl)ethyl]-3-methyl-4-oxo-4,5-dihydro[1,2]oxazolo[4,5-d]pyridazin-7-yl}phenyl)acetamide]	7.7
COc1ccc(C(=O)O)cc1-c1nn(C(C)c2ccc(Cl)cc2)c(=O)c2c(C)noc12 (centres unmarked) [Example 73]	0.039
Cc1ccccc1-c1nn(Cc2ccc(Cl)cc2)c(=O)c2c(C)noc12 [Example 76, 5-(4-chlorobenzyl)-3-methyl-7-(2-methylphenyl)[1,2]oxazolo[4,5-d]pyridazin-4(5H)-one]	1.93
Cc1noc2c(-c3cc(F)cc(F)c3N)nn(C(C)c3ccc(Cl)cc3)c(=O)c12 (centres unmarked) [Example 77, 7-(2-amino-3,5-difluorophenyl)-5-[1-(4-chlorophenyl)ethyl]-3-methyl[1,2]oxazolo[4,5-d]pyridazin-4(5H)-one]	2.48
CC(=O)Nc1cccc(-c2nn(C(C)c3ccc(Cl)cc3)c(=O)c3c(C)noc23)c1 (centres unmarked) [Example 78, N-(3-{5-[1-(4-chlorophenyl)ethyl]-3-methyl-4-oxo-4,5-dihydro[1,2]oxazolo[4,5-d]pyridazin-7-yl}phenyl)acetamide]	6.35
COc1ccc(C(F)(F)F)cc1-c1nn(C(C)c2ccc(Cl)cc2)c(=O)c2c(C)noc12 (centres unmarked) [Example 79, 5-[1-(4-chlorophenyl)ethyl]-7-[2-methoxy-5-(trifluoromethyl)phenyl]-3-methyl[1,2]oxazolo[4,5-d]pyridazin-4(5H)-one]	0.511
CNC(=O)c1ccc(OC)c(-c2nn([C@@H](C)c3ccc(Cl)cc3)c(=O)c3c(C)noc23)c1 [Example 82, 3-{5-[(1S)-1-(4-chlorophenyl)ethyl]-3-methyl-4-oxo-4,5-dihydro[1,2]oxazolo[4,5-d]pyridazin-7-yl}-4-methoxy-N-methylbenzamide]	0.023
Cc1noc2c(-c3ccc(F)cc3)nn(Cc3ccc(Cl)cc3)c(=O)c12 [Example 83, 5-(4-chlorobenzyl)-7-(4-fluorophenyl)-3-methyl[1,2]oxazolo[4,5-d]pyridazin-4(5H)-one]	3.09
CC(=O)Nc1cccc(-c2nn(Cc3cc(C(F)(F)F)ccc3F)c(=O)c3c(C)noc23)c1 [Example 85, N-(3-{5-[2-fluoro-5-(trifluoromethyl)benzyl]-3-methyl-4-oxo-4,5-dihydro[1,2]oxazolo[4,5-d]pyridazin-7-yl}phenyl)acetamide]	2.62
Cc1noc2c(-c3cccnc3N)nn(C(C)c3ccc(Cl)cc3)c(=O)c12 (centres unmarked) [Example 86, 7-(2-aminopyridin-3-yl)-5-[1-(4-chlorophenyl)ethyl]-3-methyl[1,2]oxazolo[4,5-d]pyridazin-4(5H)-one]	2.76
